Key:
Thymidine kinase [1] = target: T1, Thymidine kinase (Human alphaherpesvirus 1, UniProt Q9QNF7); assay: Inhibition of TdR phosphorylation using thymidine kinase assay for herpes simplex virus type 1; format: functional
T1 sequence (Q9QNF7 whole entry): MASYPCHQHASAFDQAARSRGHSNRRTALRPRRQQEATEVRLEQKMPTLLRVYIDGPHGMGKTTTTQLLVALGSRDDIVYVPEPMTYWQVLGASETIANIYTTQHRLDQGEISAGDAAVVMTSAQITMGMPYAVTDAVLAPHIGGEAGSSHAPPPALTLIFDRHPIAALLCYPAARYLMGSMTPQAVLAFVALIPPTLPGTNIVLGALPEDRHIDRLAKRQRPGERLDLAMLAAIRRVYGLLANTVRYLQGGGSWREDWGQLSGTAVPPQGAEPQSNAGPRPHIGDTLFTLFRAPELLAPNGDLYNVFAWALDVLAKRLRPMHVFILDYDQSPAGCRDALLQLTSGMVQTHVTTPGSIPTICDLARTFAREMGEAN

Thymidine kinase [2] = target: T1, Thymidine kinase; assay: Inhibition of TdR phosphorylation using thymidine kinase (TK) assay for herpes simplex virus type 1 (HSV-1).; format: functional

Molecule `CCc1cccc(Nc2nc3nc[nH]c3c(=O)[nH]2)c1` has an IC50 (Thymidine kinase [1]) of 2.5 µM.
Work on `O=c1[nH]c(Nc2cccc(C(F)(F)F)c2)nc2nc[nH]c12` yielded an IC50 (Thymidine kinase [1]) of 0.15 µM.
`Oc1[nH]c(Nc2ccc(C(F)(F)F)cc2)nc2ncnc1-2` gave an IC50 (Thymidine kinase [1]) of 30 µM.
`CCCCCCNc1nc(O)c2[nH]cnc2n1` was tested, and the IC50 (Thymidine kinase [1]) was 55 µM.
Work on `O=c1[nH]c(NCc2ccc(Cl)cc2)nc2nc[nH]c12` yielded an IC50 (Thymidine kinase [1]) of 8.5 µM.
`CCCCc1ccc(Nc2nc3nc[nH]c3c(=O)[nH]2)cc1` showed an IC50 (Thymidine kinase [1]) of 50 µM.
`Oc1[nH]c(Nc2ccc(F)c(Cl)c2)nc2ncnc1-2` showed an IC50 (Thymidine kinase [1]) of 8 µM.
`Cc1ccc(Nc2nc3nc[nH]c3c(=O)[nH]2)cc1` was tested, and the IC50 (Thymidine kinase [1]) was 50 µM.
`O=c1nc(Nc2cccc(CO)c2)[nH]c2nc[nH]c12` showed an IC50 (Thymidine kinase [1]) of 25 µM.
`Oc1[nH]c(Nc2cccc(Cl)c2)nc2ncnc1-2` was tested, and the IC50 (Thymidine kinase [1]) was 1.3 µM.
`Oc1[nH]c(Nc2ccc3ccccc3c2)nc2ncnc1-2` was tested, and the IC50 (Thymidine kinase [1]) was 40 µM.
`CCCCCCNC1=NC(=O)C2N=CN([C@H]3C[C@H](O)[C@@H](CO)O3)C2=N1` (some centres not stated) gave a Ki (Thymidine kinase [2]) of 2.6 µM.
For `Oc1[nH]c(Nc2ccc(Br)cc2)nc2ncnc1-2`, the IC50 (Thymidine kinase [1]) was 1 µM.
With `O=c1[nH]c(Nc2ccc(F)c(F)c2)nc2nc[nH]c12` the IC50 (Thymidine kinase [1]) was 50 µM.
Work on `OCCCCCNc1nc(O)c2[nH]cnc2n1` yielded an IC50 (Thymidine kinase [1]) of 100 µM.
`O=c1[nH]c(Nc2ccc(O)cc2)nc2nc[nH]c12` gave an IC50 (Thymidine kinase [1]) of 140 µM.
With `Oc1[nH]c(Nc2ccc(Br)c(Br)c2)nc2ncnc1-2` the IC50 (Thymidine kinase [1]) was 3 µM.

Reference: ChEMBL document CHEMBL1125141, “Structure-activity relationships of N2-substituted guanines as inhibitors of HSV1 and HSV2 thymidine kinases” (J Med Chem, 1990)
